{"source": "patent US20250099491A1", "about": "“PREVENTION OR TREATMENT OF CARDIOVASCULAR DISEASES WITH HIGH PENETRATION PRODRUGS OF ASPIRIN AND OTHER NSAIDS” (Techfields Inc., priority 2022, published 2025)", "system": "patients with ischemic strokes", "assay": "Phase 2 clinical study of spray in patients with ischemic strokes", "format": "in vivo, human", "details": "for RICA (near-wall): Maximal IMT of right internal carotid artery / LCCA (far-wall): Maximal IMT of left common carotid artery / LCCA (near-wall): Maximal IMT of left common carotid artery / LICA (far-wall): Maximal IMT of left internal carotid artery / LICA (near-wall): Maximal IMT of left internal carotid artery / RCCA (far-wall): Maximal IMT of right common carotid artery / RCCA (near-wall): Maximal IMT of right common carotid artery / RICA (far-wall): Maximal IMT of right internal carotid artery: ultrasonography", "procedure": "Each patient enrolled in Group A was administered the investigational drug in a double-blind manner for 16 weeks starting between 3 and 60 days after the onset of stroke symptoms (Day 1 of the study). The patients and/or their caregivers were instructed how to apply the investigational drug accurately so that patients or their caregivers would administer 20 sprays/dose of either the investigational drug or placebo twice daily (approximately every 12 hours) for a total daily dose of 280 mg of investigational drug. The 20 sprays of investigational drug were administered as follows: 4 sprays around the neck, 2 sprays to the left shoulder, 2 sprays to the right shoulder, 6 sprays to the chest, 3 sprays to the left leg, and 3 sprays to the right leg. Each spray was sprayed on a different area of the skin to reach maximum absorption. The patient would wait for at least 5 minutes to dress after the last spray so that the skin became completely dry.\nPatients were asked to return to the study site at Weeks 4, 8, 12, and 16 for efficacy and safety assessments. After the Week 16 assessments had been performed, patients would start the open-label period of the study the next day and receive active treatment in an open-label manner through the end of the study (EOS) at Week 32. That is, patients who were receiving active treatment would continue to receive active treatment, and patients who were receiving placebo would switch to active treatment for the remaining 16 weeks of the study. Patients would receive only 1 dose of investigational drug on the Week 16 visit day. Patients would return to the study site at Week 24 and Week 32 (EOS) for efficacy and safety assessments. An Early Termination visit would occur if the patient was discontinued from the study prematurely. Patients would have a follow-up visit approximately 14 days after the Early Termination visit or the Week 32 (EOS) visit.\nThe spray bottle deposits […] of spray solution and 7 mg 2-(diethylamino)ethyl acetoxybenzoate free base per spray on the skin. Subjects were to apply each spray to a different skin area around the neck, chest, legs and arms based on the randomized dose level assigned.\nThe treatment was administered twice daily (approximately every 12 hours) starting on Day 1 of the study through the Week 16 visit. Each spray was sprayed on a different area of the skin to reach maximum absorption.\nGroup A administered the 20 sprays of investigational drug as follows: 4 sprays around the neck, 2 sprays to the left shoulder, 2 sprays to the right shoulder, 6 sprays to the chest, 3 sprays to the left leg, and 3 sprays to the right leg twice daily for a total of 40 sprays (280 mg)/day. Each spray was sprayed on a different area of the skin to reach maximum absorption.\n(§1) Group B administered the investigational drug as follows: 2 sprays to the front of the neck, 1 spray to the left side of the neck, 1 spray to the right side of the neck, 6 sprays to the chest close to the neck twice daily for a total of 20 sprays (140 mg)/day. Each spray was sprayed on a different area of the skin to reach maximum absorption.\nas §1, with “C” for “B”, “1 spray” for “2 sprays”, “2” for “6”, “chest” for “chest close to the neck”, “10” for “20”, “(70 mg/day).” for “(140 mg)/day.”\nThe primary efficacy endpoint is the mRS score at Week 16 dichotomized as ‘success’ (0 to 2) or failure (>2) for all randomized patients at Week 16.\nThe mRS score was assessed at screening; Day 1 (baseline); Weeks 4, 8, 12, 16, 24, and 32; Early Termination Visit (if applicable) and Follow-Up Visit.\nThe mRS score measures the patient's functional level of activity and is dichotomized as a favorable outcome (score=0-2) versus unfavorable (score […]). […]", "key": {"[1]": {"details": "10 Sprays (70 mg/dose bid), Week 24"}, "[2]": {"details": "10 Sprays (70 mg/dose bid), Week 32"}, "[3]": {"details": "10 Sprays (70 mg/dose bid), baseline"}, "[4]": {"details": "20 Sprays (140 mg/dose bid), Baseline"}, "[5]": {"details": "20 Sprays (140 mg/dose bid), Week 4"}, "[6]": {"details": "20 Sprays (140 mg/dose bid), Week 8"}, "[7]": {"details": "20 Sprays (140 mg/dose bid), Week 16"}, "[8]": {"details": "20 Sprays (140 mg/dose bid), Week 24"}, "[9]": {"details": "20 Sprays (140 mg/dose bid), Week 32"}, "[10]": {"details": "20 Sprays (140 mg/dose bid), baseline"}, "[11]": {"details": "during the study, all three doses"}}}
{"compound": "CCN(CC)CCOC(=O)c1ccccc1OC(C)=O.Cl", "note": "[Compound-1]", "values": [{"measurement": "RICA (near-wall): Maximal IMT of right internal carotid artery", "setting": "10 Sprays (70 mg/dose bid), Week 16", "result": "0.9 ± 0.5", "unit": "mm"}, {"measurement": "Modified Rankin Scale Score (mRS)", "setting": "[1]", "result": "1.5 ± 0.5"}, {"measurement": "National Institute of Health Stroke Scale", "setting": "[1]", "result": "1.6 ± 0.6"}, {"measurement": "Modified Rankin Scale Score (mRS)", "setting": "[2]", "result": "1.4 ± 0.5"}, {"measurement": "National Institute of Health Stroke Scale", "setting": "[2]", "result": "1.3 ± 0.4"}, {"measurement": "LCCA (far-wall): Maximal IMT of left common carotid artery", "setting": "[2]", "result": "1.7 ± 0.8", "unit": "mm"}, {"measurement": "LCCA (near-wall): Maximal IMT of left common carotid artery", "setting": "[2]", "result": "1.2 ± 0.6", "unit": "mm"}, {"measurement": "LICA (far-wall): Maximal IMT of left internal carotid artery", "setting": "[2]", "result": "0.6 ± 0.3", "unit": "mm"}, {"measurement": "LICA (near-wall): Maximal IMT of left internal carotid artery", "setting": "[2]", "result": "0.7 ± 0.4", "unit": "mm"}, {"measurement": "RCCA (far-wall): Maximal IMT of right common carotid artery", "setting": "[2]", "result": "1.3 ± 0.8", "unit": "mm"}, {"measurement": "RCCA (near-wall): Maximal IMT of right common carotid artery", "setting": "[2]", "result": "1.3 ± 0.7", "unit": "mm"}, {"measurement": "RICA (far-wall): Maximal IMT of right internal carotid artery", "setting": "[2]", "result": "0.8 ± 0.2", "unit": "mm"}, {"measurement": "RICA (near-wall): Maximal IMT of right internal carotid artery", "setting": "[2]", "result": "0.7 ± 0.4", "unit": "mm"}, {"measurement": "Modified Rankin Scale Score (mRS)", "setting": "[3]", "result": "3.5 ± 0.5"}, {"measurement": "National Institute of Health Stroke Scale", "setting": "[3]", "result": "5.9 ± 2.0"}, {"measurement": "LCCA (far-wall): Maximal IMT of left common carotid artery", "setting": "[4]", "result": "6.5 ± 2.0", "unit": "mm"}, {"measurement": "LCCA (near-wall): Maximal IMT of left common carotid artery", "setting": "[4]", "result": "7.6 ± 1.6", "unit": "mm"}, {"measurement": "LICA (far-wall): Maximal IMT of left internal carotid artery", "setting": "[4]", "result": "5.7 ± 1.7", "unit": "mm"}, {"measurement": "LICA (near-wall): Maximal IMT of left internal carotid artery", "setting": "[4]", "result": "5.6 ± 1.7", "unit": "mm"}, {"measurement": "RCCA (far-wall): Maximal IMT of right common carotid artery", "setting": "[4]", "result": "8.8 ± 2.3", "unit": "mm"}, {"measurement": "RCCA (near-wall): Maximal IMT of right common carotid artery", "setting": "[4]", "result": "7.5 ± 1.8", "unit": "mm"}, {"measurement": "RICA (far-wall): Maximal IMT of right internal carotid artery", "setting": "[4]", "result": "4.7 ± 1.6", "unit": "mm"}, {"measurement": "RICA (near-wall): Maximal IMT of right internal carotid artery", "setting": "[4]", "result": "4.9 ± 1.3", "unit": "mm"}, {"measurement": "Modified Rankin Scale Score (mRS)", "setting": "[5]", "result": "2.1 ± 0.5"}, {"measurement": "National Institute of Health Stroke Scale", "setting": "[5]", "result": "4.6 ± 1.6"}, {"measurement": "Modified Rankin Scale Score (mRS)", "setting": "[6]", "result": "1.8 ± 0.4"}, {"measurement": "National Institute of Health Stroke Scale", "setting": "[6]", "result": "3.0 ± 1.1"}, {"measurement": "Modified Rankin Scale Score (mRS)", "setting": "[7]", "result": "1.4 ± 0.5"}, {"measurement": "National Institute of Health Stroke Scale", "setting": "[7]", "result": "1.9 ± 0.9"}, {"measurement": "LCCA (far-wall): Maximal IMT of left common carotid artery", "setting": "[7]", "result": "1.2 ± 0.6", "unit": "mm"}, {"measurement": "LCCA (near-wall): Maximal IMT of left common carotid artery", "setting": "[7]", "result": "1.3 ± 0.5", "unit": "mm"}, {"measurement": "LICA (far-wall): Maximal IMT of left internal carotid artery", "setting": "[7]", "result": "0.6 ± 0.4", "unit": "mm"}, {"measurement": "LICA (near-wall): Maximal IMT of left internal carotid artery", "setting": "[7]", "result": "0.7 ± 0.3", "unit": "mm"}, {"measurement": "RCCA (far-wall): Maximal IMT of right common carotid artery", "setting": "[7]", "result": "1.4 ± 0.3", "unit": "mm"}, {"measurement": "RCCA (near-wall): Maximal IMT of right common carotid artery", "setting": "[7]", "result": "1.2 ± 0.5", "unit": "mm"}, {"measurement": "RICA (far-wall): Maximal IMT of right internal carotid artery", "setting": "[7]", "result": "0.6 ± 0.2", "unit": "mm"}, {"measurement": "RICA (near-wall): Maximal IMT of right internal carotid artery", "setting": "[7]", "result": "0.8 ± 0.3", "unit": "mm"}, {"measurement": "Modified Rankin Scale Score (mRS)", "setting": "[8]", "result": "1.3 ± 0.5"}, {"measurement": "National Institute of Health Stroke Scale", "setting": "[8]", "result": "1.4 ± 0.6"}, {"measurement": "Modified Rankin Scale Score (mRS)", "setting": "[9]", "result": "1.3 ± 0.4"}, {"measurement": "National Institute of Health Stroke Scale", "setting": "[9]", "result": "1.1 ± 0.3"}, {"measurement": "LCCA (far-wall): Maximal IMT of left common carotid artery", "setting": "[9]", "result": "1.1 ± 0.7", "unit": "mm"}, {"measurement": "LCCA (near-wall): Maximal IMT of left common carotid artery", "setting": "[9]", "result": "0.8 ± 0.5", "unit": "mm"}, {"measurement": "LICA (far-wall): Maximal IMT of left internal carotid artery", "setting": "[9]", "result": "0.5 ± 0.3", "unit": "mm"}, {"measurement": "LICA (near-wall): Maximal IMT of left internal carotid artery", "setting": "[9]", "result": "0.6 ± 0.3", "unit": "mm"}, {"measurement": "RCCA (far-wall): Maximal IMT of right common carotid artery", "setting": "[9]", "result": "1.0 ± 0.5", "unit": "mm"}, {"measurement": "RCCA (near-wall): Maximal IMT of right common carotid artery", "setting": "[9]", "result": "0.9 ± 0.4", "unit": "mm"}, {"measurement": "RICA (far-wall): Maximal IMT of right internal carotid artery", "setting": "[9]", "result": "0.5 ± 0.3", "unit": "mm"}, {"measurement": "RICA (near-wall): Maximal IMT of right internal carotid artery", "setting": "[9]", "result": "0.6 ± 0.5", "unit": "mm"}, {"measurement": "Modified Rankin Scale Score (mRS)", "setting": "[10]", "result": "3.6 ± 0.5"}, {"measurement": "National Institute of Health Stroke Scale", "setting": "[10]", "result": "6.1 ± 2.3"}, {"measurement": "Mean and median blood pressures", "setting": "[11]", "result": "remained unchanged"}, {"measurement": "upper GI tract ulcer complication (bleeding episode, perforation, or gastric outlet obstruction)", "setting": "[11]", "result": "No notable"}, {"measurement": "skin irritation, total incidences", "setting": "mild, all three doses", "result": 6}, {"measurement": "improvement of atherosclerosis", "setting": "neck arteries by ultrasonography, spray vs placebo", "result": "can reverse atherosclerosis"}, {"measurement": "functional recovery post strokes (results of BI, words)", "setting": "spray vs placebo", "result": "can improve the functional recovery post strokes"}, {"measurement": "functional recovery post strokes (results of NIHSS, words)", "setting": "spray vs placebo", "result": "can improve the functional recovery post strokes"}, {"measurement": "functional recovery post strokes (results of mRS, words)", "setting": "spray vs placebo", "result": "can improve the functional recovery post strokes"}, {"measurement": "Gastrointestinal disorders, incidences in the study", "setting": "very mild, none appeared to be drug related, all three doses", "result": 15}]}
